Source: patent US10925914B2, “Method for alleviating depression using a health functional food containing Vaccinium bracteatum Thunb fruit extract” (priority 2016, dated 2021)
Where a name gives a salt, the structure may show the parent alone.

Tests used:
[1] = system: SH-SY5Y cells (neuroblastoma, human dopaminergic neuronal cells); details: 24 h
Protocol: SH-SY5Y cells (neuroblastoma, human dopaminergic neuronal cells) were incubated in MEM medium containing 1% antimycotics/antibiotics and 10% FBS. The cells were seeded at a density of 10^5 cell/ […] in a 96-well plate, and then incubated for 24 hours.
The cell line used was SH-SY5Y cells, and the cells were treated with the Vaccinium bracteatum Thunb. fruit hot-water extract at concentrations of 1, 3, 10, 30, and 100 μg/ml to investigate cytotoxicity.
(§1) After 24 hours, cell viability was determined using an MTT assay.
as §1

ICR male mice = assay: Forced swimming test after 6-day oral administration; format: in vivo; details: comparison group, 6 days
Protocol: The ICR male mice were orally administered with the Vaccinium bracteatum Thunb. fruit extract of the present invention. For a comparative group, escitalopram oxalate used an anti-depressant was orally administered. These were administered for 6 days according to the test. Before drug administration, for the pre-test (pre-swim), tap water around 25° C. was poured into a cylindrical water tank (20 cm in diameter, 40 cm in height) from the bottom of the cylinder to 15 cm, and then the mice were put into the water tank, forced to swim for 15 minutes, taken out from the water, wiped with a dry towel, and then returned to breeding boxes. After 6 days of drug administration, the present test (post-swim) was carried out. […] The recorded image was analyzed excluding the first minute therefrom, and animal behavior during the last 5 minutes was classified into 3 types: immobility behavior (the mouse only floated near the surface of the water, slightly moving while only a part of the upper body including the face was above water), swimming behavior (the mouse moved horizontally around the cylinder moving the front and hind legs in a swimming motion), and climbing behavior (the mouse scratched the wall, somewhat violently kicking the front extremities to move remain above water). The duration of each behavior type was measured.

corticosterone (COR) = assay: Plasma corticosterone (COR) by ELISA after 6-day administration; format: in vivo, mice; details: escitalopram oxalate 10 mg/kg, 6 days; no significance
Protocol: The effects on concentration changes of the neurotransmitter NE associated with depression and the stress hormone COR in normal conditions were measured by isolating plasma from the mice after 6 day-administration of each drug and using the Abnova ELISA kit according to the instruction of the manufacturer.

## OO [H2O2, hydrogen peroxide]
[1]; 10 μM
  cell viability: 50-60%

## C[C@]12C[C@H](O)[C@H]3[C@@H](CCC4=CC(=O)CC[C@@]43C)[C@@H]1CC[C@@H]2C(=O)CO [corticosterone]
[1]; 1 mM
  cytotoxicity: 50-60%

## CN(C)CCC[C@@]1(c2ccc(F)cc2)OCc2cc(C#N)ccc21 [escitalopram oxalate]
ICR male mice; control 51.82±3.38 seconds
  swimming time: 128.16 ± 6.65 s
ICR male mice; last 5 min of 6 min swim, control 245.48±4.05 seconds
  immobility time: 169.65 ± 7.15 s
Corticosterone (COR)
  level of the stress hormone corticosterone compared with the control group: decrease tendency
